Laboratory results reported in patent US20250296971A1, “GASTRIC INHIBITORY PEPTIDE RECEPTOR LIGANDS” (priority 2021, published 2025).
*1 amine or outer side, *2 acyl side, *3 side chain or, on linkers, in order; H or OH if unused. Where a SMILES comes first, the peptide text is derived from it. Bridges are numbered along the chain shown (N, C = ends). [ ]: non-standard residue; d: D form. The star is where a group is joined. X5 = NC(=O)[C@H](CCCCNC(=O)CN1CCN(CC(=O)O)CCN(CC(=O)O)CCN(CC(=O)O)CC1)NC(=O)CCC(=O)NCCCOCCOCCOCCCN*; X3 = O=C(O)CN1CCN(CC(=O)O)CCN(CC(=O)NCCCOCCOCCOCCCN*)CCN(CC(=O)O)CC1; DOTA = O=C(O)CN1CCN(CC(=O)O)CCN(CC(=O)*)CCN(CC(=O)O)CC1; Trp(5-Cl) = N[C@@H](Cc1c[nH]c2ccc(Cl)cc12)C(=O)O; Trp(5-F) = N[C@@H](Cc1c[nH]c2ccc(F)cc12)C(=O)O; Trp(6-F) = N[C@@H](Cc1c[nH]c2cc(F)ccc12)C(=O)O; 1Nal = N[C@@H](Cc1cccc2ccccc12)C(=O)O; mXylylene = c1cc(C[*:1])cc(C[*:2])c1; X29 = c1cc(CNCCN[*:2])cc(C[*:1])c1; X6 = c1cc(CSCCN[*:2])nc(C[*:1])c1; X7 = c1cc(CSCCN[*:2])cc(C[*:1])c1; Hyp = O=C(O)[C@@H]1C[C@@H](O)CN1; X1 = O=C(CN1CCC(N[*:1])CC1)[*:2]; X15 = c1ncc(C[*:1])cc1CSCCN[*:2]; Suc = O=C(CCC(=O)[*:2])[*:1]; Ac6c = NC1(C(=O)O)CCCCC1; Api = NC1(C(=O)O)CCNCC1; Thp = NC1(C(=O)O)CCOCC1; Aib = CC(C)(N)C(=O)O

Molecular target: T1, GIPR (CHO-K1-hGIPR cells) (Homo sapiens, UniProt P48546)
T1 construct: host or cells: CHO-K1
T1 sequence (P48546 22-466): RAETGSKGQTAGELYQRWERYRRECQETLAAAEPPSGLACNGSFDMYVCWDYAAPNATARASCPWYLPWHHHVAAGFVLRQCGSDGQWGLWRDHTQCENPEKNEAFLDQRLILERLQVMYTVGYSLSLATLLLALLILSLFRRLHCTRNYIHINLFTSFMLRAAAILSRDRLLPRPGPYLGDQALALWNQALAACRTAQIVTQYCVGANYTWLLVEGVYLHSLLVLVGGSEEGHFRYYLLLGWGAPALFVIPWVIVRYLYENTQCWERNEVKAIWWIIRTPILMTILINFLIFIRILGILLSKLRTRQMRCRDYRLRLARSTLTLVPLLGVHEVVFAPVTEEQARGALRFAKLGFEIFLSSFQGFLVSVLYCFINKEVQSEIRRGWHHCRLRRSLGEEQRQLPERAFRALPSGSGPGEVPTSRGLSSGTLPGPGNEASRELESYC
Experiment: FACS binding assay
Settings: competition with 20 nM GIP-057, 4° C., 1 hour, read-out: pIC50 Category (converted)
How it was run: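 CHO-K1 cells expressing human GIPR, washed in PBS/1% FCS, then stained with 1 μg/mL APC-streptavidin for 30 min on ice.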

| Structure (SMILES) | IC50 [nM] |
| --- | --- |
| CC[C@H](C)[C@@H]1NC(=O)[C@H](CC(C)C)NC(=O)C(C)(C)NC(=O)[C@@H](NC(=O)[C@@H](CC(C)C)NC(=O)[C@H](CCC(=O)O)NC(=O)[C@@H]2CCCN2C(=O)[C@H](Cc2cccc3ccccc23)NC(=O)[C@H](Cc2c[nH]c3ccc(F)cc23)NC(=O)[C@H](CC(=O)O)NC(C)=O)CSCc2cccc(c2)CSC[C@@H](C(=O)NCCCOCCOCCOCCCNC(=O)CCC(=O)N[C@@H](CCCCNC(=O)CN2CCN(CC(=O)O)CCN(CC(=O)O)CCN(CC(=O)O)CC2)C(N)=O)NC1=O [GIP-083, Ac-Asp-5Fw-1Ni-Pro-Glu-leu-[Cys(3MeBn)-Aib-Leu-Ile-Cys]-Ttds-Lys(DOTA)-NH2] (Ac-D[Trp(5-F)][1Nal]PE[dL]C[Aib]LIC-X5; linker 7-11 via mXylylene) | < 10 |
| CC[C@H](C)[C@@H]1NC(=O)[C@H](CC(C)C)NC(=O)C(C)(C)NC(=O)[C@@H](NC(=O)[C@@H](CC(C)C)NC(=O)[C@H](CCC(=O)O)NC(=O)[C@@H]2CCCN2C(=O)[C@H](Cc2cccc3ccccc23)NC(=O)[C@H](Cc2c[nH]c3cc(F)ccc23)NC(=O)[C@H](CC(=O)O)NC(C)=O)CSCc2cccc(c2)CSC[C@@H](C(=O)NCCCOCCOCCOCCCNC(=O)CCC(=O)N[C@@H](CCCCNC(=O)CN2CCN(CC(=O)O)CCN(CC(=O)O)CCN(CC(=O)O)CC2)C(N)=O)NC1=O [GIP-084, Ac-Asp-6Fw-Ni-Pro-Glu-leu-[Cys(3MeBn)-Aib-Leu-Ile-Cys]-Ttds-Lys(DOTA)-NH2] (Ac-D[Trp(6-F)][1Nal]PE[dL]C[Aib]LIC-X5; linker 7-11 via mXylylene) | < 10 |
| CC[C@H](C)[C@@H]1NC(=O)[C@H](CC(C)C)NC(=O)C(C)(C)NC(=O)[C@@H](NC(=O)[C@H](CC(C)C)NC(=O)[C@H](CCC(=O)O)NC(=O)[C@@H]2CCCN2C(=O)[C@H](Cc2cccc3ccccc23)NC(=O)[C@H](Cc2c[nH]c3ccccc23)NC(=O)CCC(=O)O)CSCc2cccc(c2)CSC[C@@H](C(=O)NCCCOCCOCCOCCCNC(=O)CCC(=O)N[C@@H](CCCCNC(=O)CN2CCN(CC(=O)O)CCN(CC(=O)O)CCN(CC(=O)O)CC2)C(N)=O)NC1=O [GIP-085, HO-Succinyl-Trp-1Ni-Pro-Glu-Leu-[Cys(3MeBn)-Aib-Leu-Ile-Cys]-Ttds-Lys(DOTA)-NH2] (Suc-W[1Nal]PELC[Aib]LIC-X5; linker 6-10 via mXylylene) | < 10 |
| CC[C@H](C)[C@@H]1NC(=O)[C@H](CC(C)C)NC(=O)C2(CCCCC2)NC(=O)[C@@H](NC(=O)[C@@H](CC(C)C)NC(=O)[C@H](CCC(=O)O)NC(=O)[C@@H]2CCCN2C(=O)[C@H](Cc2c[nH]c3ccc(Cl)cc23)NC(=O)[C@H](Cc2c[nH]c3ccccc23)NC(=O)[C@H](CC(=O)O)NC(=O)CCC(=O)NCCCOCCOCCOCCCNC(=O)CN2CCN(CC(=O)O)CCN(CC(=O)O)CCN(CC(=O)O)CC2)CSCc2cccc(c2)CSCCNC1=O [GIP-086, DOTA-Ttds-Asp-Trp-5Clw-Pro-Glu-leu-[Cys(3MeBn)-Egz-Leu-Ile-AET]] ({X3-Suc}-DW[Trp(5-Cl)]PE[dL]C[Ac6c]LI; linker 7-C via X7) | < 10 |
| CC[C@H](C)[C@@H]1NC(=O)[C@H](CC(C)C)NC(=O)C2(CCOCC2)NC(=O)[C@@H](NC(=O)[C@@H](CC(C)C)NC(=O)[C@H](CCC(=O)O)NC(=O)[C@@H]2CCCN2C(=O)[C@H](Cc2c[nH]c3ccc(Cl)cc23)NC(=O)[C@H](Cc2c[nH]c3ccccc23)NC(=O)[C@H](CC(=O)O)NC(=O)CCC(=O)NCCCOCCOCCOCCCNC(=O)CN2CCN(CC(=O)O)CCN(CC(=O)O)CCN(CC(=O)O)CC2)CSCc2cccc(c2)CSCCNC1=O [GIP-087, DOTA-Ttds-Asp-Trp-5Clw-Pro-Glu-leu-[Cys(3MeBn)-Thp-Leu-Ile-AET]] ({X3-Suc}-DW[Trp(5-Cl)]PE[dL]C[Thp]LI; linker 7-C via X7) | < 10 |
| CC[C@H](C)[C@@H]1NC(=O)[C@H](CC(C)C)NC(=O)C2(CCNCC2)NC(=O)[C@@H](NC(=O)[C@@H](CC(C)C)NC(=O)[C@H](CCC(=O)O)NC(=O)[C@@H]2CCCN2C(=O)[C@H](Cc2c[nH]c3ccc(Cl)cc23)NC(=O)[C@H](Cc2c[nH]c3ccccc23)NC(=O)[C@H](CC(=O)O)NC(=O)CCC(=O)NCCCOCCOCCOCCCNC(=O)CN2CCN(CC(=O)O)CCN(CC(=O)O)CCN(CC(=O)O)CC2)CSCc2cccc(c2)CSCCNC1=O [GIP-088, DOTA-Ttds-Asp-Trp-5Clw-Pro-Glu-leu-[Cys(3MeBn)-Apc-Leu-Ile-AET]] ({X3-Suc}-DW[Trp(5-Cl)]PE[dL]C[Api]LI; linker 7-C via X7) | < 10 |
| CC[C@H](C)[C@@H]1NC(=O)[C@H](CC(C)C)NC(=O)C(C)(C)NC(=O)[C@@H](NC(=O)[C@@H](CC(C)C)NC(=O)[C@H](CCC(=O)O)NC(=O)[C@@H]2CCCN2C(=O)[C@H](Cc2c[nH]c3ccc(Cl)cc23)NC(=O)[C@H](Cc2c[nH]c3ccccc23)NC(=O)[C@H](CC(=O)O)NC(=O)CN2CCC(NC(=O)CN3CCN(CC(=O)O)CCN(CC(=O)O)CCN(CC(=O)O)CC3)CC2)CSCc2cccc(c2)CSCCNC1=O [GIP-089, DOTA-APAc-Asp-Trp-5Clw-Pro-Glu-leu-[Cys(3MeBn)-Aib-Leu-Ile-AET]] ({DOTA}-[X1]DW[Trp(5-Cl)]PE[dL]C[Aib]LI; linker 8-C via X7) | < 10 |
| CC[C@H](C)[C@@H]1NC(=O)[C@H](CC(C)C)NC(=O)C(C)(C)NC(=O)[C@@H](NC(=O)[C@@H](CC(C)C)NC(=O)[C@H](CCC(=O)O)NC(=O)[C@@H]2CCCN2C(=O)[C@H](Cc2c[nH]c3ccc(Cl)cc23)NC(=O)[C@H](Cc2c[nH]c3ccccc23)NC(=O)[C@H](CC(=O)O)NC(=O)CCC(=O)NCCCOCCOCCOCCCNC(=O)CN2CCN(CC(=O)O)CCN(CC(=O)O)CCN(CC(=O)O)CC2)CSCc2cccc(n2)CSCCNC1=O [GIP-090, DOTA-Ttds-Asp-Trp-5Clw-Pro-Glu-leu-[Cys(2Lut)-Aib-Leu-Ile-AET]] ({X3-Suc}-DW[Trp(5-Cl)]PE[dL]C[Aib]LI; linker 7-C via X6) | < 10 |
| CC[C@H](C)[C@@H]1NC(=O)[C@H](CC(C)C)NC(=O)C(C)(C)NC(=O)[C@@H](NC(=O)[C@@H](CC(C)C)NC(=O)[C@H](CCC(=O)O)NC(=O)[C@@H]2CCCN2C(=O)[C@H](Cc2c[nH]c3ccc(Cl)cc23)NC(=O)[C@H](Cc2c[nH]c3ccccc23)NC(=O)[C@H](CC(=O)O)NC(=O)CCC(=O)NCCCOCCOCCOCCCNC(=O)CN2CCN(CC(=O)O)CCN(CC(=O)O)CCN(CC(=O)O)CC2)CSCc2cncc(c2)CSCCNC1=O [GIP-091, DOTA-Ttds-Asp-Trp-5Clw-Pro-Glu-leu-[Cys(3Lut)-Aib-Leu-Ile-AET]] ({X3-Suc}-DW[Trp(5-Cl)]PE[dL]C[Aib]LI; linker 7-C via X15) | < 10 |
| CC[C@H](C)[C@@H]1NC(=O)[C@H](CC(C)C)NC(=O)C(C)(C)NC(=O)[C@@H](NC(=O)[C@@H](CC(C)C)NC(=O)[C@H](CCC(=O)O)NC(=O)[C@@H]2CCCN2C(=O)[C@H](Cc2c[nH]c3ccc(Cl)cc23)NC(=O)[C@H](Cc2c[nH]c3ccccc23)NC(=O)[C@H](CC(=O)O)NC(=O)CCC(=O)NCCCOCCOCCOCCCNC(=O)CN2CCN(CC(=O)O)CCN(CC(=O)O)CCN(CC(=O)O)CC2)CNCc2cccc(c2)CSCCNC1=O [GIP-092, DOTA-Ttds-Asp-Trp-5Clw-Pro-Glu-leu-[Dap(3MeBn)-Aib-Leu-Ile-AET]] | < 10 |
| CC[C@H](C)[C@@H]1NC(=O)[C@H](CC(C)C)NC(=O)C(C)(C)NC(=O)[C@@H](NC(=O)[C@@H](CC(C)C)NC(=O)[C@H](CCC(=O)O)NC(=O)[C@@H]2CCCN2C(=O)[C@H](Cc2c[nH]c3ccc(Cl)cc23)NC(=O)[C@H](Cc2c[nH]c3ccccc23)NC(=O)[C@H](CC(=O)O)NC(=O)CCC(=O)NCCCOCCOCCOCCCNC(=O)CN2CCN(CC(=O)O)CCN(CC(=O)O)CCN(CC(=O)O)CC2)CSCc2cccc(c2)CNCCNC1=O [GIP-093, DOTA-Ttds-Asp-Trp-5Clw-Pro-Glu-leu-[Cys(3MeBn)-Aib-Leu-Ile-en]] ({X3-Suc}-DW[Trp(5-Cl)]PE[dL]C[Aib]LI; linker 7-C via X29) | < 10 |
| CC[C@H](C)[C@@H]1NC(=O)[C@H](CC(C)C)NC(=O)C(C)(C)NC(=O)[C@@H](NC(=O)[C@@H](CC(C)C)NC(=O)[C@H](CCC(=O)O)NC(=O)[C@@H]2C[C@@H](O)CN2C(=O)[C@H](Cc2c[nH]c3ccc(Cl)cc23)NC(=O)[C@H](Cc2c[nH]c3ccccc23)NC(=O)[C@H](CC(=O)O)NC(=O)CCC(=O)NCCCOCCOCCOCCCNC(=O)CN2CCN(CC(=O)O)CCN(CC(=O)O)CCN(CC(=O)O)CC2)CSCc2cccc(c2)CSCCNC1=O [GIP-094, DOTA-Ttds-Asp-Trp-5Clw-Hyp-Glu-leu-[Cys(3MeBn)-Aib-Leu-Ile-AET]] ({X3-Suc}-DW[Trp(5-Cl)][Hyp]E[dL]C[Aib]LI; linker 7-C via X7) | < 10 |
| CC[C@H](C)[C@@H]1NC(=O)[C@H](CC(C)C)NC(=O)C(C)(C)NC(=O)[C@@H](NC(=O)[C@@H](CC(C)C)NC(=O)[C@H](CCC(=O)O)NC(=O)[C@@H]2CCCN2C(=O)[C@H](Cc2c[nH]c3ccc(Cl)cc23)NC(=O)[C@H](Cc2c[nH]c3ccccc23)NC(=O)[C@H](CC(=O)O)NC(=O)CCC(=O)NCCCOCCOCCOCCCNC(=O)CN2CCN(CC(=O)O)CCN(CC(=O)O)CCN(CC(=O)O)CC2)CNCc2cccc(c2)C[S+]([O-])CCNC1=O (stereo partly drawn) [GIP-098, DOTA-Ttds-Asp-Trp-5Clw-Pro-Glu-leu-[Dap(3MeBn)-Aib-Leu-Ile-AETO]] | < 10 |
